Source: patent US6906095B2, “Indolylalkylidenehydrazine-carboximidamide derivatives as 5-hydroxytryptamine-6 ligands” (Wyeth, priority 2002, dated 2005)
Like-named read-outs stand apart in the source and are kept apart here.

Biological target: T1, human cloned 5-HT6 receptors (Homo sapiens, UniProt P50406)
T1 construct: expressed in transfected cells; host or cells: Hela cells
Assay: 5-HT6 binding affinity, [3H]-LSD displacement in membranes of Hela cells
Settings: for inhibition at 0.1 µM: test compound dose 100 nM; for inhibition at 0.01 µM: test compound dose 10 nM
Protocol: The affinity of test compounds for the serotonin 5-HT6 receptor is evaluated in the following manner. Cultured Hela cells expressing human cloned 5-HT6 receptors are harvested and centrifuged at low speed (1,000×g) for 10.0 min to remove the culture media. The harvested cells are suspended in half volume of fresh physiological phosphate buffered saline solution and recentrifuged at the same speed. This operation is repeated. The collected cells are then homogenized in ten volumes of 50 mM Tris.HCl (pH 7.4) and 0.5 mM EDTA. The homogenate is centrifuged at 40,000×g for 30.0 min and the precipitate is collected. The obtained pellet is resuspended in 10 volumes of Tris.HCl buffer and recentrifuged at the same speed. The final pellet is suspended in a small volume of Tris.HCl buffer and the tissue protein content is determined in aliquots of 10-25 μl volumes. Bovine Serum Albumin is used as the standard in the protein determination according to the method described in Lowry et al., J. Biol. Chem., 193:265 (1951). The volume of the suspended cell membranes is adjusted to give a tissue protein concentration of 1.0 mg/ml of suspension. The prepared membrane suspension (10 times concentrated) is aliquoted in 1.0 ml volumes and stored at −70° C. until used in subsequent binding experiments.
The reaction is allowed to proceed in the dark for 120 min at room temperature, at which time, the bound ligand-receptor complex is filtered off on a 96 well unifilter with a Packard Filtermate® 196 Harvester. The bound complex caught on the filter disk is allowed to air dry and the radioactivity is measured in a Packard TopCount® equipped with six photomultiplier detectors, after the addition of 40.0 μl Microscint®-20 scintillant to each shallow well. The unifilter plate is heat-sealed and counted in a PackardTopCount® with a tritium efficiency of 31.0%.
Specific binding to the 5-HT6 receptor is defined as the total radioactivity bound less the amount bound in the presence of 10.0 μM unlabeled methiothepin. Binding in the presence of varying concentrations of test compound is expressed as a percentage of specific binding in the absence of test compound. The results are plotted as logit % bound versus log concentration of test compound. Nonlinear regression analysis of data points with a computer assisted program Prism® yields both the IC50 and the Ki values of test compounds with 95% confidence limits.
The amount of displacement by the test compound is given in percent (%) inhibition and is derived from the following equation: [formula] where B0 is the amount of CPM bound in the presence of the testing agent. NSB represents the CPM bound in the presence of a saturating concentration of a displacer and TB represents the total amount of CPM bound at zero (0) concentration of test compound.
Alternatively, a linear regression line of decline of data points is plotted, from which the IC50 value can be read off and the Ki value determined by solving the following equation: [formula] where L is the concentration of the radioactive ligand used and KD is the dissociation constant of the ligand for the receptor, both expressed in nM.

[1] = test compound dose 1000 nM, [3H]-LSD 3.0 nM, read-out: % Inhibition

T1 sequence (P50406 whole entry): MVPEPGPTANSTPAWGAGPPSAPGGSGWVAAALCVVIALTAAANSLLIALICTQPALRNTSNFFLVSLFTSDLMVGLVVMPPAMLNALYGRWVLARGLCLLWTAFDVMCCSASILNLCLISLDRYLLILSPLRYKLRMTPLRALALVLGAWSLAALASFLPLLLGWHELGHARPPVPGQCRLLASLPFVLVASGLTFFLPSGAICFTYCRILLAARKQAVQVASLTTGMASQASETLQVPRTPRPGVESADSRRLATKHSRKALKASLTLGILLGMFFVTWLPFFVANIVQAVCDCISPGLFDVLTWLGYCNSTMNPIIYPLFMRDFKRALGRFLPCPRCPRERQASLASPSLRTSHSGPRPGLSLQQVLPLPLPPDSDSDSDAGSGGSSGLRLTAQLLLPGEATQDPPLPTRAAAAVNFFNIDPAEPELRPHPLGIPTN

SMILES | inhibition at 1 µM [1] [%] | inhibition at 0.1 µM ([3H]-LSD 3.0 nM) [%] | also measured
Cc1ccc(S(=O)(=O)n2cc(C=NNC3=NCCCN3)c3ccccc32)cc1 [Example 1, 1-[(4-methylphenyl)sulfonyl]-1H-indole-3-carboxaldehyde 1,4,5,6-tetrahydropyrimidin-2-ylhydrazone] | 56 | – | –
N=C(N)NN=C(c1cn(S(=O)(=O)c2ccccc2)c2ccccc12)C1CCCCC1 [Example 2, 2-{Cyclohexyl[1-(phenylsulfonyl)-1H-indol-3-yl]methylidene}-hydrazinecarboximidamide] | – | – | inhibition at 1 µM: 69.2%
Cc1ccc(S(=O)(=O)n2cc(C=NNC(=N)N)c3ccccc32)cc1 [Example 3, 2-({1-[(4-methylphenyl)sulfonyl]-1H-indol-3-l}methylidene)hydrazinecarboximidamide] | – | – | % Inhibition (test compound dose 1000 nM, [3H]-LSD 3.0 nM): 71.0%
Cc1ccc(S(=O)(=O)n2cc(C=NN(C)C3=NCCN3)c3ccccc32)cc1 [Example 4, 1-[(4-methylphenyl)sulfonyl]-1H-indole-3-carbaldehyde 4,5-dihydro-1H-imidazol-2-yl(methyl)hydrazone] | 71.9 | – | –
CC(C)C(=NNC(=N)N)c1cn(S(=O)(=O)c2ccccc2)c2ccccc12 [Example 5, 2-{2-methyl-1-[1-(phenylsulfonyl)-1H-indol-3-yl]propylidene}hydrazinecarboximidamide] | 91.5 | – | –
N=C(N)NN=C(Cc1ccccc1)c1cn(S(=O)(=O)c2ccccc2)c2ccccc12 [Example 6, 2-{2-phenyl-1-[1-(phenylsulfonyl)-1H-indol-3-yl]ethylidene}hydrazinecarboximidamide] | 97.8 | – | Ki: 11 nM
CC(C)CC(=NNC(=N)N)c1cn(S(=O)(=O)c2ccccc2)c2ccccc12 [Example 7, 2-{3-methyl-1-[1-(phenylsulfonyl)-1H-indol-3-yl]butylidene}hydrazinecarboximidamide] | 98.5 | – | Ki: 12 nM
N=C(N)N/N=C(\C=C\c1ccccc1Cl)c1cn(S(=O)(=O)c2ccccc2)c2ccccc12 [Example 8, 2-{(E,2E)-3-(2-chlorophenyl)-1-[1-(phenylsulfonyl)-1H-indol-3-yl]prop-2-enylidene}-hydrazinecarboximidamide] | 95.2 | – | –
CC(=NNC(=N)N)c1cn(S(=O)(=O)c2ccccc2)c2ccccc12 [Example 9, 2-{1-[1-(phenylsulfonyl)-1H-indol-3-yl]ethylidene}hydrazinecarboximidamide] | 99.5 | – | Ki: 7 nM
CC(=NNC(=N)N)c1c(-c2ccc(F)c(Cl)c2)n(S(=O)(=O)c2ccccc2)c2ccccc12 [Example 12, 2-{1-[2-(3-chloro-4-fluorophenyl)-1-(phenylsulfonyl)-1H-indol-3-yl]ethylidene}hydrazinecarboximidamide] | 75.6 | – | –
CC(=NNC(=N)N)c1c(-c2ccc(F)c(F)c2)n(S(=O)(=O)c2ccccc2)c2ccccc12 [Example 13, 2-{1-[2-(3,4-difluorophenyl)-1-(phenylsulfonyl)-1H-indol-3-yl]ethylidene}hydrazinecarboximidamide] | 86 | – | –
CC(=NNC(=N)N)c1c(-c2ccc3ccccc3c2)n(S(=O)(=O)c2ccccc2)c2ccccc12 [Example 14, 2-{1-[2-(2-naphthyl)-1-(phenylsulfonyl)-1H-indol-3-yl]ethylidene}hydrazinecarboximidamide] | 85.4 | – | –
CC(=NNC(=N)N)c1c(-c2ccccc2)n(S(=O)(=O)c2ccccc2)c2ccccc12 [Example 15, 2-{1-[2-phenyl-1-(phenylsulfonyl)-1H-indol-3-yl]ethylidene}hydrazinecarboximidamide] | – | 67.1 | –
CC(=NNC(=N)N)c1cn(S(=O)(=O)c2ccccc2)c2ccc(C#N)cc12 [Example 16, 2-{1-[5-cyano-1-(phenylsulfonyl)-1H-indol-3-yl]ethylidene}hydrazinecarboximidamide] | – | – | inhibition at 0.01 µM ([3H]-LSD 3.0 nM): 40.6%
CC(=NNC(=N)N)c1cn(S(=O)(=O)c2ccccc2)c2ccc(I)cc12 [Example 17, 2-{1-[5-iodo-1-(phenylsulfonyl)-1H-indol-3-yl]ethylidene}hydrazinecarboximidamide] | – | – | inhibition at 0.01 µM ([3H]-LSD 3.0 nM): 52%
CC(=NNC(=N)N)c1cn(S(=O)(=O)c2ccccc2)c2ccc([N+](=O)[O-])cc12 [Example 18, 2-{1-[5-nitro-1-(phenylsulfonyl)-1H-indol-3-yl]ethylidene}hydrazinecarboximidamide] | – | 77.9 | –
CC(=NNC(=N)N)c1cn(S(=O)(=O)c2ccccc2)c2ccc(F)cc12 [Example 19, 2-{1-[5-fluoro-1-(phenylsulfonyl)-1H-indol-3-yl]ethylidene}hydrazinecarboximidamide] | – | 82.4 | –

The next lines start with results.

inhibition at 1 µM [1] [%] | inhibition at 0.1 µM ([3H]-LSD 3.0 nM) [%] | SMILES | also measured
– | 76.3 | COc1ccc2c(c1)c(C=NNC(=N)N)cn2S(=O)(=O)c1ccccc1 [Example 20, 2-{[5-methoxy-1-(phenylsulfonyl)-1H-indol-3-yl]methylidene}hydrazinecarboximidamide] | –
57.4 | – | N=C(N)NN=Cc1cn(S(=O)(=O)c2ccccc2)c2ccc(OCc3ccccc3)cc12 [Example 21, 2-{[5-(benzyloxy)-1-(phenylsulfonyl)-1H-indol-3-yl]methylidene}hydrazinecarboximidamide] | –
– | 90.5 | CC(=NNC(=N)N)c1cn(S(=O)(=O)c2sc(N)nc2C)c2ccccc12 [Example 22, 2-(1-{1-[(2-amino-4-methyl-1,3-thiazol-5-yl)sulfonyl]-1H-indol-3-yl}ethylidene)hydrazinecarboximidamide] | Ki: 8 nM
– | 92.9 | CC(=NNC(=N)N)c1cn(S(=O)(=O)c2ccc(N)cc2)c2ccccc12 [Example 23, 2-(1-{1-[(4-aminophenyl)sulfonyl]-1H-indol-3-yl}ethylidene)hydrazinecarboximidamide] | Ki: 2 nM
– | 62.9 | CC(=NNC(=N)N)c1cn(S(=O)(=O)c2cccc3nsnc23)c2ccccc12 [Example 24, 2-{1-[1-(2,1,3-benzothiadiazol-4-ylsulfonyl)-1H-indol-3-yl]ethylidene}hydrazinecarboximidamide] | –
– | 79.6 | CC(=NNC(=N)N)c1cn(S(=O)(=O)c2cccc3nonc23)c2ccccc12 [Example 25] | Ki: 15 nM
– | 39.7 | CC(=NNC(=N)N)c1cn(S(=O)(=O)c2ccc(-c3ccccc3)cc2)c2ccccc12 [Example 26, 2-{1-[1-([1,1′-biphenyl]-4-ylsulfonyl)-1H-indol-3-yl]ethylidene}hydrazinecarboximidamide] | –
– | 33.8 | CC(=NNC(=N)N)c1cn(S(=O)(=O)c2c(Cl)sc(Cl)c2Br)c2ccccc12 [Example 27, 2-(1-{1-[(4-bromo-2,5-dichlorothien-3-yl)sulfonyl]-1H-indol-3-yl}ethylidene)hydrazinecarboximidamide] | –
– | 58.3 | CC(=NNC(=N)N)c1cn(S(=O)(=O)c2cc(Br)c(Cl)s2)c2ccccc12 [Example 28, 2-(1-{1-[(4-bromo-5-chlorothien-2-yl)sulfonyl]-1H-indol-3-yl}ethylidene)hydrazinecarboximidamide] | –
– | 60.3 | CC(=NNC(=N)N)c1cn(S(=O)(=O)c2sc(Cl)cc2Br)c2ccccc12 [Example 29, 2-(1-{1-[(3-bromo-5-chlorothien-2-yl)sulfonyl]-1H-indol-3-yl}ethylidene)hydrazinecarboximidamide] | –
– | 65 | CC(=NNC(=N)N)c1cn(S(=O)(=O)c2ccc(Br)cc2)c2ccccc12 [Example 30, 2-(1-{1-[(4-bromophenyl)sulfonyl]-1H-indol-3-yl}ethylidene)hydrazinecarboximidamide] | –
– | 83.3 | CC(=NNC(=N)N)c1cn(S(=O)(=O)c2ccccc2Br)c2ccccc12 [Example 31, 2-(1-{1-[(2-bromophenyl)sulfonyl]-1H-indol-3-yl}ethylidene)hydrazinecarboximidamide] | Ki: 13 nM
– | 76.2 | CC(=NNC(=N)N)c1cn(S(=O)(=O)c2cccc(Br)c2)c2ccccc12 [Example 32, 2-(1-{1-[(3-bromophenyl)sulfonyl]-1H-indol-3-yl}ethylidene)hydrazinecarboximidamide] | Ki: 26 nM
